Results: ChEMBL document CHEMBL1201861, “Genomics of Drug Sensitity in Cancer screening data, Wellcome Trust Sanger Institute”

How the values were obtained:
Assay in all cases: cells
NEC8 = format: functional, cell-based, Homo sapiens; settings: Homo sapiens, NEC8;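 further: growth inhibition of human NEC8 cells, read out by a cell viability assay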
Description: SANGER: Inhibition of human NEC8 cell growth in a cell viability assay.

PC-3 = format: functional, cell-based, Homo sapiens; settings: Homo sapiens, PC-3;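 further: cell viability assay measuring growth inhibition of PC-3 cells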
Description: SANGER: Inhibition of human PC-3 cell growth in a cell viability assay.

ALL-PO = format: functional, cell-based; settings: Homo sapiens;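 further: growth inhibition of ALL-PO cells, read out by a cell viability assay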
Description: SANGER: Inhibition of human ALL-PO cell growth in a cell viability assay.

UACC-62 = format: functional, cell-based, Homo sapiens; settings: Homo sapiens, UACC-62;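 further: growth inhibition of human UACC-62 cells, read out by a cell viability assay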
Description: SANGER: Inhibition of human UACC-62 cell growth in a cell viability assay.

EFO-27 = format: functional, cell-based, Homo sapiens; settings: Homo sapiens, EFO-27;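 further: growth inhibition of EFO-27 cells, read out with a cell viability assay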
Description: SANGER: Inhibition of human EFO-27 cell growth in a cell viability assay.

SW626 = format: functional, cell-based, Homo sapiens; settings: Homo sapiens, SW626;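 further: growth inhibition of SW626 cells, measured with a cell viability assay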
Description: SANGER: Inhibition of human SW626 cell growth in a cell viability assay.

K562 = format: functional, cell-based; settings: Homo sapiens
Description: SANGER: Inhibition of human K-562 cell growth in a cell viability assay.

LU-139 = format: functional, cell-based; settings: Homo sapiens
Description: SANGER: Inhibition of human LU-139 cell growth in a cell viability assay.

BE-13 = format: functional, cell-based; settings: Homo sapiens;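 further: growth inhibition of human BE-13 cells, measured with a cell viability assay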
Description: SANGER: Inhibition of human BE-13 cell growth in a cell viability assay.

NB69 = format: functional, cell-based, Homo sapiens; settings: Homo sapiens, NB69;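 further: growth inhibition of NB69 cells, determined by a cell viability assay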
Description: SANGER: Inhibition of human NB69 cell growth in a cell viability assay.

NCI-H1581 = format: functional, cell-based, Homo sapiens; settings: Homo sapiens, NCI-H1581;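 further: cell growth inhibition read out by a viability assay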
Description: SANGER: Inhibition of human NCI-H1581 cell growth in a cell viability assay.

MDA-MB-453 = format: functional, cell-based, Homo sapiens; settings: Homo sapiens, MDA-MB-453
Description: SANGER: Inhibition of human MDA-MB-453 cell growth in a cell viability assay.

EW-3 = format: functional, cell-based; settings: Homo sapiens;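 further: cell viability assay read-out, IC50 reflects inhibition of growth of the EW-3 cells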
Description: SANGER: Inhibition of human EW-3 cell growth in a cell viability assay.

HT-1376 = format: functional, cell-based, Homo sapiens; settings: Homo sapiens, HT-1376
Description: SANGER: Inhibition of human HT-1376 cell growth in a cell viability assay.

ETK-1 = format: functional, cell-based, Homo sapiens; settings: Homo sapiens, ETK-1;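 further: growth inhibition of human ETK-1 cells, read out with a cell viability assay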
Description: SANGER: Inhibition of human ETK-1 cell growth in a cell viability assay.

NTERA-2-cl-D1 = format: functional, cell-based, Homo sapiens; settings: Homo sapiens, NTERA-2-cl-D1;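 further: inhibition of cell growth, measured with a cell viability assay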
Description: SANGER: Inhibition of human NTERA-S-cl-D1 cell growth in a cell viability assay.

Detroit 562 = format: functional, cell-based, Homo sapiens; settings: Homo sapiens, Detroit 562;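 further: growth inhibition of human Detroit 562 cells, read out by a cell viability assay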
Description: SANGER: Inhibition of human Detroit562 cell growth in a cell viability assay.

SW1463 = format: functional, cell-based, Homo sapiens; settings: Homo sapiens, SW1463;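 further: growth inhibition of SW1463 cells, determined with a cell viability assay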
Description: SANGER: Inhibition of human SW1463 cell growth in a cell viability assay.

GCIY = format: functional, cell-based, Homo sapiens; settings: Homo sapiens, GCIY;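 further: growth inhibition of the human GCIY cell line, read out by a cell viability assay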
Description: SANGER: Inhibition of human GCIY cell growth in a cell viability assay.

HTC-C3 = format: functional, cell-based, Homo sapiens; settings: Homo sapiens, HTC-C3;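 further: inhibition of cell growth, read out with a cell viability assay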
Description: SANGER: Inhibition of human HTC-C3 cell growth in a cell viability assay.

HSC-3 = format: functional, cell-based, Homo sapiens; settings: Homo sapiens, HSC-3
Description: SANGER: Inhibition of human HSC-3 cell growth in a cell viability assay.

SCC-9 = format: functional, cell-based, Homo sapiens; settings: Homo sapiens, SCC-9;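 further: Read-out is a cell viability assay, with values giving inhibition of cell growth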
Description: SANGER: Inhibition of human SCC-9 cell growth in a cell viability assay.

NCI-H596 = format: functional, cell-based, Homo sapiens; settings: Homo sapiens, NCI-H596;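 further: growth inhibition of NCI-H596 cells, read out with a cell viability assay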
Description: SANGER: Inhibition of human NCI-H596 cell growth in a cell viability assay.

LB831-BLC = format: functional, cell-based, Homo sapiens; settings: Homo sapiens, LB831-BLC;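 further: growth inhibition of LB831-BLC cells, read out with a cell viability assay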
Description: SANGER: Inhibition of human LB831-BLC cell growth in a cell viability assay.

U-251 = format: functional, cell-based, Homo sapiens; settings: Homo sapiens, U-251;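 further: growth inhibition of human U-251 cells, read out through a cell viability assay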
Description: SANGER: Inhibition of human U251 cell growth in a cell viability assay.

MDA-MB-157 = format: functional, cell-based, Homo sapiens; settings: Homo sapiens, MDA-MB-157
Description: SANGER: Inhibition of human MDA-MB-157 cell growth in a cell viability assay.

SBC-1 = format: functional, cell-based; settings: Homo sapiens;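 further: cell viability assay measuring growth inhibition of the SBC-1 cell line, IC50 being the concentration that halves growth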
Description: SANGER: Inhibition of human SBC-1 cell growth in a cell viability assay.

PSN1 = format: functional, cell-based, Homo sapiens; settings: Homo sapiens, PSN1;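 further: suppression of growth of human PSN1 cells, read out by a cell viability assay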
Description: SANGER: Inhibition of human PSN1 cell growth in a cell viability assay.

HCC2157 = format: functional, cell-based; settings: Homo sapiens;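 further: growth inhibition of the cancer cell line, read out as cell viability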
Description: SANGER: Inhibition of human HCC2157 cell growth in a cell viability assay.

C-33-A = format: functional, cell-based, Homo sapiens; settings: Homo sapiens, C-33-A;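 further: cell viability assay measuring growth inhibition of C-33-A cells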
Description: SANGER: Inhibition of human C-33-A cell growth in a cell viability assay.

BT-20 = format: functional, cell-based, Homo sapiens; settings: Homo sapiens, BT-20;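 further: cell viability assay measuring suppression of growth in human BT-20 cells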
Description: SANGER: Inhibition of human BT-20 cell growth in a cell viability assay.

Hs-578T = format: functional, cell-based, Homo sapiens; settings: Homo sapiens, Hs-578T
Description: SANGER: Inhibition of human Hs-578-T cell growth in a cell viability assay.

SK-OV-3 = format: functional, cell-based, Homo sapiens; settings: Homo sapiens, SK-OV-3;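 further: growth inhibition of SK-OV-3 human cells, read out with a cell viability assay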
Description: SANGER: Inhibition of human SK-OV-3 cell growth in a cell viability assay.

MDA-MB-231 = format: functional, cell-based, Homo sapiens; settings: Homo sapiens, MDA-MB-231
Description: SANGER: Inhibition of human MDA-MB-231 cell growth in a cell viability assay.

NCI-H1838 = format: functional, cell-based, Homo sapiens; settings: Homo sapiens, NCI-H1838;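 further: growth inhibition of NCI-H1838 cells, determined with a cell viability readout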
Description: SANGER: Inhibition of human NCI-H1838 cell growth in a cell viability assay.

A3-KAW = format: functional, cell-based; settings: Homo sapiens;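 further: growth inhibition of human A3-KAW cells, read out with a cell viability assay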
Description: SANGER: Inhibition of human A3-KAW cell growth in a cell viability assay.

MKN-1 = format: functional, cell-based, Homo sapiens; settings: Homo sapiens, MKN-1;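 further: growth inhibition of human MKN1 cells, read out by a cell viability measurement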
Description: SANGER: Inhibition of human MKN1 cell growth in a cell viability assay.

T98G = format: functional, cell-based, Homo sapiens; settings: Homo sapiens, T98G;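 further: growth inhibition of T98G cells, read out by a cell viability assay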
Description: SANGER: Inhibition of human T98G cell growth in a cell viability assay.

A253 cell line = format: functional, cell-based, Homo sapiens; settings: Homo sapiens, A253;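 further: growth inhibition of A253 cells, read out with a cell viability assay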
Description: SANGER: Inhibition of human A253 cell growth in a cell viability assay.

BFTC-905 = format: functional, cell-based, Homo sapiens; settings: Homo sapiens, BFTC-905
Description: SANGER: Inhibition of human BFTC-905 cell growth in a cell viability assay.

CAL-72 = format: functional, cell-based, Homo sapiens; settings: Homo sapiens, CAL-72;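 further: cell viability assay measuring inhibition of proliferation in the CAL-72 cell line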
Description: SANGER: Inhibition of human CAL-72 cell growth in a cell viability assay.

HT-3 = format: functional, cell-based, Homo sapiens; settings: Homo sapiens, HT-3;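 further: growth inhibition measured with a cell viability readout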
Description: SANGER: Inhibition of human HT-3 cell growth in a cell viability assay.

DU-145 = format: functional, cell-based, Homo sapiens; settings: Homo sapiens, DU-145
Description: SANGER: Inhibition of human DU-145 cell growth in a cell viability assay.

SCC-15 = format: functional, cell-based, Homo sapiens; settings: Homo sapiens, SCC-15;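 further: growth inhibition of SCC-15 cells, read out with a cell viability assay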
Description: SANGER: Inhibition of human SCC-15 cell growth in a cell viability assay.

CAL-85-1 = format: functional, cell-based; settings: Homo sapiens;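 further: growth inhibition of human CAL-85-1 cells, read out with a cell viability assay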
Description: SANGER: Inhibition of human CAL-85-1 cell growth in a cell viability assay.

NCI-H441 = format: functional, cell-based; settings: Homo sapiens;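 further: growth inhibition of NCI-H441 cells, read out with a cell viability assay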
Description: SANGER: Inhibition of human NCI-H441 cell growth in a cell viability assay.

OE19 = format: functional, cell-based, Homo sapiens; settings: Homo sapiens, OE19;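 further: growth inhibition of OE19 cells, measured through a cell viability read-out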
Description: SANGER: Inhibition of human OE19 cell growth in a cell viability assay.

HCC1395 = format: functional, cell-based, Homo sapiens; settings: Homo sapiens, HCC1395;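 further: growth inhibition of HCC1395 cells, read out by a cell viability assay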
Description: SANGER: Inhibition of human HCC1395 cell growth in a cell viability assay.

MV4-11 = format: functional, cell-based, MV-4-11; settings: Homo sapiens;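 further: cell viability readout measuring growth inhibition of human MV-4-11 cells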
Description: SANGER: Inhibition of human MV-4-11 cell growth in a cell viability assay.

KMOE-2 = format: functional, cell-based; settings: Homo sapiens;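 further: growth inhibition of human KMOE-2 cells, read out with a cell viability assay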
Description: SANGER: Inhibition of human KMOE-2 cell growth in a cell viability assay.

D-336MG = format: functional, cell-based, Homo sapiens; settings: Homo sapiens, D-336MG
Description: SANGER: Inhibition of human D-336MG cell growth in a cell viability assay.

COc1ccc(-c2ccc3c(N4CCOC[C@@H]4C)nc(N4CCOC[C@@H]4C)nc3n2)cc1CO [AZD-8055]
IC50 (NEC8): 417 nM
IC50 (PC-3): 722 nM
IC50 (ALL-PO): 1440 nM
IC50 (UACC-62): > 2000 nM
IC50 (EFO-27): 680 nM
IC50 (SW626): > 2000 nM
IC50 (K562): > 2000 nM
IC50 (LU-139): 23.3 nM
IC50 (BE-13): 1120 nM
IC50 (NB69): 135 nM
IC50 (NCI-H1581): 190 nM
IC50 (MDA-MB-453): 1160 nM
IC50 (EW-3): 40.6 nM
IC50 (HT-1376): > 2000 nM
IC50 (ETK-1): 894 nM
IC50 (NTERA-2-cl-D1): 701 nM
IC50 (Detroit 562): 1190 nM
IC50 (SW1463): > 2000 nM
IC50 (GCIY): 458 nM
IC50 (HTC-C3): 732 nM
IC50 (HSC-3): 429 nM
IC50 (SCC-9): > 2000 nM
IC50 (NCI-H596): 1260 nM
IC50 (LB831-BLC): 1390 nM
IC50 (U-251): > 2000 nM
IC50 (MDA-MB-157): 678 nM
IC50 (SBC-1): 45.8 nM
IC50 (PSN1): 771 nM
IC50 (HCC2157): > 2000 nM
IC50 (C-33-A): 904 nM
IC50 (BT-20): 1220 nM
IC50 (Hs-578T): 599 nM
IC50 (SK-OV-3): 672 nM
IC50 (MDA-MB-231): 1720 nM
IC50 (NCI-H1838): > 2000 nM
IC50 (A3-KAW): 297 nM
IC50 (MKN-1): > 2000 nM
IC50 (T98G): 1010 nM
IC50 (A253 cell line): > 2000 nM
IC50 (BFTC-905): 621 nM
IC50 (CAL-72): > 2000 nM
IC50 (HT-3): 1660 nM
IC50 (DU-145): > 2000 nM
IC50 (SCC-15): 1170 nM
IC50 (CAL-85-1): 1530 nM
IC50 (NCI-H441): > 2000 nM
IC50 (OE19): > 2000 nM
IC50 (HCC1395): > 2000 nM
IC50 (MV4-11): 103 nM

CN(Cc1cnc2nc(N)nc(N)c2n1)c1ccc(C(=O)N[C@@H](CCC(=O)O)C(=O)O)cc1 [METHOTREXATE]
IC50 (NEC8): > 200 nM
IC50 (PC-3): > 200 nM
IC50 (ALL-PO): 5.86 nM
IC50 (UACC-62): > 200 nM
IC50 (EFO-27): > 200 nM
IC50 (KMOE-2): 97.4 nM
IC50 (SW626): > 200 nM
IC50 (K562): > 200 nM
IC50 (LU-139): > 200 nM
IC50 (BE-13): 38.7 nM
IC50 (NB69): > 200 nM
IC50 (NCI-H1581): > 200 nM
IC50 (MDA-MB-453): > 200 nM
IC50 (HT-1376): > 200 nM
IC50 (ETK-1): > 200 nM
IC50 (NTERA-2-cl-D1): > 200 nM
IC50 (Detroit 562): > 200 nM
IC50 (SW1463): > 200 nM
IC50 (GCIY): > 200 nM
IC50 (HTC-C3): > 200 nM
IC50 (HSC-3): > 200 nM
IC50 (SCC-9): > 200 nM
IC50 (NCI-H596): > 200 nM
IC50 (LB831-BLC): > 200 nM
IC50 (U-251): > 200 nM
IC50 (MDA-MB-157): > 200 nM
IC50 (SBC-1): > 200 nM
IC50 (PSN1): > 200 nM
IC50 (C-33-A): > 200 nM
IC50 (BT-20): > 200 nM
IC50 (Hs-578T): > 200 nM
IC50 (MDA-MB-231): > 200 nM
IC50 (NCI-H1838): > 200 nM
IC50 (A3-KAW): 8.92 nM
IC50 (MKN-1): > 200 nM
IC50 (D-336MG): > 200 nM
IC50 (T98G): > 200 nM
IC50 (BFTC-905): > 200 nM
IC50 (CAL-72): > 200 nM
IC50 (HT-3): 69.4 nM
IC50 (DU-145): > 200 nM
IC50 (SCC-15): > 200 nM
IC50 (CAL-85-1): > 200 nM
IC50 (NCI-H441): > 200 nM
IC50 (OE19): > 200 nM
IC50 (HCC1395): > 200 nM
IC50 (MV4-11): 19.4 nM

O=C(c1cc(Cc2n[nH]c(=O)c3ccccc23)ccc1F)N1CCN(C(=O)C2CC2)CC1 [OLAPARIB]
IC50 (NEC8): > 5000 nM
IC50 (PC-3): > 5000 nM
IC50 (ALL-PO): > 5000 nM
IC50 (UACC-62): > 5000 nM
IC50 (EFO-27): > 5000 nM
IC50 (KMOE-2): > 5000 nM
IC50 (SW626): > 5000 nM
IC50 (K562): > 5000 nM
IC50 (LU-139): 4760 nM
IC50 (BE-13): > 5000 nM
IC50 (NB69): > 5000 nM
IC50 (NCI-H1581): > 5000 nM
IC50 (MDA-MB-453): > 5000 nM
IC50 (EW-3): 2280 nM
IC50 (HT-1376): > 5000 nM
IC50 (ETK-1): > 5000 nM
IC50 (NTERA-2-cl-D1): 1330 nM
IC50 (Detroit 562): > 5000 nM
IC50 (SW1463): > 5000 nM
IC50 (GCIY): > 5000 nM
IC50 (HTC-C3): > 5000 nM
IC50 (HSC-3): > 5000 nM
IC50 (SCC-9): > 5000 nM
IC50 (NCI-H596): > 5000 nM
IC50 (LB831-BLC): > 5000 nM
IC50 (U-251): > 5000 nM
IC50 (MDA-MB-157): > 5000 nM
IC50 (SBC-1): 4810 nM
IC50 (PSN1): > 5000 nM
IC50 (C-33-A): > 5000 nM
IC50 (BT-20): > 5000 nM
IC50 (Hs-578T): > 5000 nM
IC50 (MDA-MB-231): > 5000 nM
IC50 (NCI-H1838): > 5000 nM
IC50 (A3-KAW): > 5000 nM
IC50 (MKN-1): > 5000 nM
IC50 (D-336MG): > 5000 nM
IC50 (T98G): > 5000 nM
IC50 (BFTC-905): > 5000 nM
IC50 (CAL-72): > 5000 nM
IC50 (HT-3): > 5000 nM
IC50 (DU-145): > 5000 nM
IC50 (SCC-15): > 5000 nM
IC50 (CAL-85-1): > 5000 nM
IC50 (NCI-H441): > 5000 nM
IC50 (OE19): > 5000 nM
IC50 (HCC1395): > 5000 nM
IC50 (MV4-11): 4130 nM
